# Assay results reported in PMC10066365, “Nemacol is a small molecule inhibitor of C. elegans vesicular acetylcholine transporter with anthelmintic potential” (Nature Communications, 2023).
# “And” between values parts separate entries of the source, which are not always exact repeats. Equal values may be shown once.
# Legend:
# Format in all cases: in vivo, Caenorhabditis elegans
# [1] = Motor phenotype time course on 60 μM Nemacol-1, EMB-8 disruption vs wild type; settings: N2, 60µM, count per bio rep
# [2] = system: C. elegans emb-8(hc69); emb-8(RNAi); experiment: as above; settings: for adult worms C1 (loose coil) / adult worms C2 (tight coil) / adult worms NP (no phene) / adult worms J (jerky-unc): count per bio rep
# C. elegans DA1316 = experiment: C. elegans 3-day liquid viability assay, DA1316 avr-14; avr-15; […]; settings: for total animals normalized to corresponding controls: DA1316
# [3] = N2, 60µM, 1h, average of 3 biological repeats
# [4] = N2, 60µM, 4h, average of 3 biological repeats
# [5] = N2, 60µM, 6h, average of 3 biological repeats
# [6] = N2, 60µM, 24h, average of 3 biological repeats
# [7] = emb-8, 60µM, 1h, average of 3 biological repeats
# [8] = emb-8, 60µM, 4h, average of 3 biological repeats
# [9] = emb-8, 60µM, 6h, average of 3 biological repeats
# [10] = emb-8, 60µM, 24h, average of 3 biological repeats
smiles,measurement,setting,value
O=[N+]([O-])c1ccc(N2CCN(CC3CCCCC3)CC2)cc1 [Nemacol-1],adult worms P (paralyzed),[1]; 6h,0
same,adult worms P (paralyzed),[1]; 24h,0
same,Fraction Coiled,[2]; [3],0.5185
same,Fraction Jerky-Unc,[2]; [3],0.2778
same,Fraction Parayzed,[2]; [3],0.2037
same,adult worms C1 (loose coil),"[2]; N2, 60µM, 1h",4 and 3 and 5
same,adult worms C2 (tight coil),"[2]; N2, 60µM, 1h",6 and 4
same,adult worms NP (no phene),"[2]; N2, 60µM, 1h",0
same,Fraction Coiled,"[2]; N2, 60µM, 1h, per bio rep",0.5000 and 0.5556
same,Fraction Coiled,[2]; [4],0.1111
same,Fraction Jerky-Unc,[2]; [4],0.2963
same,Fraction Parayzed,[2]; [4],0.0185
same,adult worms J (jerky-unc),"[2]; N2, 60µM, 4h",7 and 5 and 4
same,adult worms NP (no phene),"[2]; N2, 60µM, 4h",7 and 14 and 10
same,Fraction Jerky-Unc,"[2]; N2, 60µM, 4h, per bio rep",0.2222 and 0.3889 and 0.2778
same,Fraction Coiled,[2]; [5],0.0556
same,Fraction Jerky-Unc,[2]; [5],0.2037
same,Fraction Parayzed,[2]; [5],0.0000
same,adult worms J (jerky-unc),"[2]; N2, 60µM, 6h",3 and 5
same,adult worms NP (no phene),"[2]; N2, 60µM, 6h",15 and 10
same,Fraction Jerky-Unc,"[2]; N2, 60µM, 6h, per bio rep",0.1667 and 0.2778
same,Fraction Parayzed,"[2]; N2, 60µM, 6h, per bio rep",0.0000
same,Fraction Coiled,[2]; [6],0.0000
same,Fraction Jerky-Unc,[2]; [6],0.0000
same,Fraction Parayzed,[2]; [6],0.0000
same,adult worms C1 (loose coil),"[2]; N2, 60µM, 24h",0
same,adult worms C2 (tight coil),"[2]; N2, 60µM, 24h",0
same,adult worms J (jerky-unc),"[2]; N2, 60µM, 24h",0
same,adult worms NP (no phene),"[2]; N2, 60µM, 24h",18
same,Fraction Coiled,"[2]; N2, 60µM, 24h, per bio rep",0.0000
same,Fraction Jerky-Unc,"[2]; N2, 60µM, 24h, per bio rep",0.0000
same,Fraction Parayzed,"[2]; N2, 60µM, 24h, per bio rep",0.0000
same,Fraction Coiled,[2]; [7],0.5000
same,Fraction Jerky-Unc,[2]; [7],0.2778
same,Fraction Parayzed,[2]; [7],0.2222
same,adult worms C1 (loose coil),"[2]; emb-8, 60µM, 1h",3 and 4
same,adult worms C2 (tight coil),"[2]; emb-8, 60µM, 1h",6 and 4
same,adult worms J (jerky-unc),"[2]; emb-8, 60µM, 1h",5 and 4 and 6
same,adult worms NP (no phene),"[2]; emb-8, 60µM, 1h",0
same,Fraction Coiled,"[2]; emb-8, 60µM, 1h, per bio rep",0.5556 and 0.5000 and 0.4444
same,Fraction Jerky-Unc,"[2]; emb-8, 60µM, 1h, per bio rep",0.3333 and 0.2778 and 0.2222
same,Fraction Coiled,[2]; [8],0.1481
same,Fraction Jerky-Unc,[2]; [8],0.3889
same,Fraction Parayzed,[2]; [8],0.4630
same,adult worms NP (no phene),"[2]; emb-8, 60µM, 4h",0
same,Fraction Coiled,[2]; [9],0.3704
same,Fraction Jerky-Unc,[2]; [9],0.2778
same,Fraction Parayzed,[2]; [9],0.3519
same,adult worms C2 (tight coil),"[2]; emb-8, 60µM, 6h",4 and 3
same,adult worms NP (no phene),"[2]; emb-8, 60µM, 6h",0
same,Fraction Coiled,[2]; [10],0.2963
same,Fraction Jerky-Unc,[2]; [10],0.2222
same,Fraction Parayzed,[2]; [10],0.4815
same,adult worms NP (no phene),"[2]; emb-8, 60µM, 24h",0
same,Fraction Coiled,"[2]; emb-8, 60µM, 24h, per bio rep",0.3333 and 0.2222
same,total animals normalized to corresponding controls,C. elegans DA1316; ivermectin 0 uM + nemacol-1 5.72205e-5,117.10
same,total animals normalized to corresponding controls,C. elegans DA1316; ivermectin 0 uM + nemacol-1 0.0146484,91.26
same,total animals normalized to corresponding controls,C. elegans DA1316; ivermectin 0 uM + nemacol-1 3.75,106.04
same,total animals normalized to corresponding controls,C. elegans DA1316; ivermectin 0 uM + nemacol-1 7.5,111.01
same,total animals normalized to corresponding controls,C. elegans DA1316; ivermectin 0 uM + nemacol-1 15,100.31
same,total animals normalized to corresponding controls,C. elegans DA1316; ivermectin 0 uM + nemacol-1 30,100.23
same,total animals normalized to corresponding controls,C. elegans DA1316; ivermectin 0 uM + nemacol-1 60,99.19
same,total animals normalized to corresponding controls,C. elegans DA1316; ivermectin 0.0009375 uM + nemacol-1 0.000114441,112.95
same,total animals normalized to corresponding controls,C. elegans DA1316; ivermectin 0.0009375 uM + nemacol-1 0.0292969,124.80
same,total animals normalized to corresponding controls,C. elegans DA1316; ivermectin 0.0009375 uM + nemacol-1 3.75,113.26
same,total animals normalized to corresponding controls,C. elegans DA1316; ivermectin 0.0009375 uM + nemacol-1 7.5,122.67
same,total animals normalized to corresponding controls,C. elegans DA1316; ivermectin 0.0009375 uM + nemacol-1 15,99.45
same,total animals normalized to corresponding controls,C. elegans DA1316; ivermectin 0.0009375 uM + nemacol-1 30,96.12
same,total animals normalized to corresponding controls,C. elegans DA1316; ivermectin 0.0009375 uM + nemacol-1 60,95.59
same,total animals normalized to corresponding controls,C. elegans DA1316; ivermectin 0.001875 uM + nemacol-1 0.000228882,117.74
same,total animals normalized to corresponding controls,C. elegans DA1316; ivermectin 0.001875 uM + nemacol-1 0.0585938,95.40
same,total animals normalized to corresponding controls,C. elegans DA1316; ivermectin 0.001875 uM + nemacol-1 3.75,107.81
same,total animals normalized to corresponding controls,C. elegans DA1316; ivermectin 0.001875 uM + nemacol-1 7.5,110.79
same,total animals normalized to corresponding controls,C. elegans DA1316; ivermectin 0.001875 uM + nemacol-1 15,103.40
same,total animals normalized to corresponding controls,C. elegans DA1316; ivermectin 0.001875 uM + nemacol-1 30,87.76
same,total animals normalized to corresponding controls,C. elegans DA1316; ivermectin 0.001875 uM + nemacol-1 60,95.73
same,total animals normalized to corresponding controls,C. elegans DA1316; ivermectin 0.00375 uM + nemacol-1 0.000457764,105.05
same,total animals normalized to corresponding controls,C. elegans DA1316; ivermectin 0.00375 uM + nemacol-1 0.117188,110.64
same,total animals normalized to corresponding controls,C. elegans DA1316; ivermectin 0.00375 uM + nemacol-1 3.75,115.16
same,total animals normalized to corresponding controls,C. elegans DA1316; ivermectin 0.00375 uM + nemacol-1 7.5,104.58
same,total animals normalized to corresponding controls,C. elegans DA1316; ivermectin 0.00375 uM + nemacol-1 15,92.41
same,total animals normalized to corresponding controls,C. elegans DA1316; ivermectin 0.00375 uM + nemacol-1 30,95.26
same,total animals normalized to corresponding controls,C. elegans DA1316; ivermectin 0.00375 uM + nemacol-1 60,95.05
same,total animals normalized to corresponding controls,C. elegans DA1316; ivermectin 0.03 uM + nemacol-1 0.00366211,117.10
same,total animals normalized to corresponding controls,C. elegans DA1316; ivermectin 0.03 uM + nemacol-1 0.9375,95.99
same,total animals normalized to corresponding controls,C. elegans DA1316; ivermectin 0.03 uM + nemacol-1 3.75,106.91
same,total animals normalized to corresponding controls,C. elegans DA1316; ivermectin 0.03 uM + nemacol-1 7.5,93.50
same,total animals normalized to corresponding controls,C. elegans DA1316; ivermectin 0.03 uM + nemacol-1 15,78.16
same,total animals normalized to corresponding controls,C. elegans DA1316; ivermectin 0.03 uM + nemacol-1 30,62.13
same,total animals normalized to corresponding controls,C. elegans DA1316; ivermectin 0.03 uM + nemacol-1 60,54.19
same,total animals normalized to corresponding controls,C. elegans DA1316; ivermectin 0.06 uM + nemacol-1 0.00732422,74.90
same,total animals normalized to corresponding controls,C. elegans DA1316; ivermectin 0.06 uM + nemacol-1 1.875,82.85
same,total animals normalized to corresponding controls,C. elegans DA1316; ivermectin 0.06 uM + nemacol-1 3.75,87.36
same,total animals normalized to corresponding controls,C. elegans DA1316; ivermectin 0.06 uM + nemacol-1 7.5,84.34
same,total animals normalized to corresponding controls,C. elegans DA1316; ivermectin 0.06 uM + nemacol-1 15,45.86
same,total animals normalized to corresponding controls,C. elegans DA1316; ivermectin 0.06 uM + nemacol-1 30,52.87
same,total animals normalized to corresponding controls,C. elegans DA1316; ivermectin 0.06 uM + nemacol-1 60,31.96
same,synergy with Ivermectin in triple mutant compared to wild type,"C. elegans DA1316; avr-14, avr-15, glc-1 triple mutant",0.6 fold
